Patent EP1433789A1, “Pyrrolopyrazines and their use as selective apoptosis inducers” (Aponetics AG, priority 2002, dated 2004)

Assays:
KB = experiment: Hoechst 33342 nuclear staining (Table 3); type: cell-based, human; design: key: 0 relating to no activity; 1 relating to weak activity comprising less than 50% of the cells; score 2 relating to strong activity comprising more than 50% of the cells
Method: (§1) This assay is performed in 96 well tissue culture plates. Appropriate number of cells (adherent cells: 3 - 5*10^3, suspension cells: 8 - 10*10^3) are being seeded out in 80 µl complete medium. Adherent cells are incubated for 24 h for proper spreading out before addition of test compounds while suspension cells are immediately treated with test compounds after seeding out. The test compounds are added in 20 µl complete medium containing max 5% DMSO. The final compound concentrations in the assays are 10 µM, 3 µM,1 µM and 0.3 µM, respectively. After 24 h or 48 h incubation at culture conditions, 10 µl medium containing Hoechst 33342 dye (Sigma B-2261) at 2-5 µg/ml are added to each well. The assay plates are then further incubated for 30 minutes and subsequently analyzed with a standard inverted fluorescence microscope. The readout allows the determination of the fraction of apoptotic nuclei as well as other morphological criteria specific for apoptosis as a function of the treatment. The following scores are used: 0 relating to no activity, 1 relating to weak activity comprising less than 50% of the cells and score 2 relating to strong activity comprising more than 50% of the cells.

Jurkat [1] = experiment: Hoechst 33342 nuclear staining (Table 3); type: cell-based, human; design: key: 0 relating to no activity; 1 relating to weak activity comprising less than 50% of the cells; score 2 relating to strong activity comprising more than 50% of the cells
Method: as §1

K562 [2] = experiment: Hoechst 33342 nuclear staining (Table 3); type: cell-based, human; design: key: 0 relating to no activity; 1 relating to weak activity comprising less than 50% of the cells; score 2 relating to strong activity comprising more than 50% of the cells
Method: as §1

HeLa [3] = experiment: Hoechst 33342 nuclear staining (Table 3); type: cell-based, human; design: key: 0 relating to no activity; 1 relating to weak activity comprising less than 50% of the cells; score 2 relating to strong activity comprising more than 50% of the cells
Method: as §1

A20 [4] = experiment: MTS proliferation assay; type: cell-based; details: Mus musculus, A20, 72 h incubation
Method: (§2) The assay is performed in 96 well tissue culture plates. The cells (range : 1.5*10^3-10^4) are seeded out in 80 µl complete medium 24 h prior to compound treatment. The test compounds are added in 20 µl complete medium containing max 5% DMSO. The final compound concentrations in the assays are 10 µM, 3 µM,1 µM and 0.3 µM, respectively. The assay plates are incubated for 72 h at culture conditions. The MTS reagent is prepared according to the manufacturer's protocol (Promega G1111 ). 20 µl MTS reagent are added to each well, the assay plates are quickly spun and incubated for another 3 h at culture conditions. Subsequently, the plates are shortly shaked and absorption measured with a microplate-reader at 492 nm.

K562 [5] = experiment: MTS proliferation assay; type: cell-based; details: Homo sapiens, K562, 72 h incubation
Method: as §2

HeLa [6] = experiment: MTS proliferation assay; type: cell-based; details: Homo sapiens, 72 h incubation
Method: as §2

Jurkat [7] = experiment: PI staining for cell cycle distribution; type: cell-based, human; design: key: 0 indicates no occurrence at all; 1 for weak; 2 for strong occurrence; details: Jurkat 3 uM, 24 h
Method: (§3) 1 - 2*10^5 cells are seeded into 24 well tissue culture plates and incubated for 24 h prior to compound addition. Compounds are added for 24 h in a final concentration of 3 µM or 10 µM. Adherent cells are harvested by trypsinization. The cell suspensions are fixed by adding 2 parts ice cold ethanol 100% while vortexing. Then the samples are stored for > 2 h at-20°C. Subsequently the cells are washed with PBS once and resuspended in 250 µl PBS containing 50 µg/ml PI (Calbiochem # 537059), then the samples are incubated at 37°C for 30 minutes and subsequently analyzed on a FACSCalibur™ monitoring linear PI fluorescence activity on FL2.. The readout allows the detection of a possible direct or indirect influence of the tested compounds on the cell cycle. The following events can occur: a) Generation of a subG1 peak indicative for DNA fragmentation, b) increase of the cell population arrested in G2M phase. Both events are scored by 1 for weak and 2 for strong occurrence. 0 indicates no occurrence at all. […]

HeLa [8] = experiment: PI staining for cell cycle distribution; type: cell-based, human; design: key: 0 indicates no occurrence at all; 1 for weak; 2 for strong occurrence; details: HeLa 10 µM, 24 h
Method: as §3

A20 [9] = experiment: AnnexinV/7-AAD staining; type: cell-based, mouse; details: A20, 10 µM, 24 h treatment
Method: (§4) Adherent cells (1 - 2*10^5) are 24 h prior to compound treatment seeded into 24 well tissue culture plates. Suspension cells are pipetted into P-tubes immediately before treatment. Test compounds are added leading to a final concentrations of 10 µM. After 24 h treatment cells are harvested (in case of adherent cells by trypsinization) and transferred to FACS tubes (BD Biosciences). After centrifugation and removal of the supernatant, 100 µl complete medium containing AnnexinV-GST (10 µg) is added, mixed and incubated at 4°C for 30 minutes. Subsequently, the cells are washed once with medium and incubated with 100 µl anti-GST Alexa 488 (Molecular Probes A-11131) in medium diluted 1:500 for 30 minutes at 4°C. Then, cells are washed once and stained with 1 µg/ml 7-aminoactinomycin D (7-AAD) (Molecular Probes A-1310) in 250 µl medium and analyzed on the FACSCalibur™. AnnexinV is measured in FL1 whereas 7-AAD is measured in FL3. In Table 5 the percentage of positively stained cells after treatment with the respective compounds are indicated. The following scores are used: Score 0 relates to less than 10%, score 1 relates to more than 10% but less than 50% and score 2 relates to more than 50% positivity.

Jurkat [10] = experiment: AnnexinV/7-AAD staining; type: cell-based, human; details: 10 µM, 24 h treatment
Method: as §4

HeLa [11] = experiment: AnnexinV/7-AAD staining; type: cell-based, human; details: 10 µM, 24 h treatment
Method: as §4

Ramos = experiment: AnnexinV/7-AAD staining; type: cell-based, human; details: 10 µM, 24 h treatment
Method: as §4

IC50 (K562 [5]): > 10 µM
IC50 (HeLa [6]): 1 to 10 µM
Compound: COc1cc2c(cc1OC)-c1cc3nc4ccccc4nc3n1C(C)C2 (stereo not drawn) [compound 8]
Hoechst 33342 nuclear staining (KB; 24h, conc 0.3 (µM)): 0
Hoechst 33342 nuclear staining (KB; 24h, conc 1 (µM)): 0
Hoechst 33342 nuclear staining (KB; 24h, conc 3 (µM)): 0
Hoechst 33342 nuclear staining (KB; 24h, conc 10 (µM)): 0
Hoechst 33342 nuclear staining (KB; 48h, conc 0.3 (µM)): 0
Hoechst 33342 nuclear staining (KB; 48h, conc 1 (µM)): 0
Hoechst 33342 nuclear staining (KB; 48h, conc 3 (µM)): 0
Hoechst 33342 nuclear staining (KB; 48h, conc 10 (µM)): 0
Hoechst 33342 nuclear staining (Jurkat [1]; 24h, conc 0.3 (µM)): 1 (1 relating to weak activity comprising less than 50% of the cells)
Hoechst 33342 nuclear staining (Jurkat [1]; 24h, conc 1 (µM)): 1 (1 relating to weak activity comprising less than 50% of the cells)
Hoechst 33342 nuclear staining (Jurkat [1]; 24h, conc 3 (µM)): 2 (score 2 relating to strong activity comprising more than 50% of the cells)
Hoechst 33342 nuclear staining (Jurkat [1]; 24h, conc 10 (µM)): 2 (score 2 relating to strong activity comprising more than 50% of the cells)
Hoechst 33342 nuclear staining (Jurkat [1]; 48h, conc 0.3 (µM)): 1 (1 relating to weak activity comprising less than 50% of the cells)
Hoechst 33342 nuclear staining (Jurkat [1]; 48h, conc 1 (µM)): 2 (score 2 relating to strong activity comprising more than 50% of the cells)
Hoechst 33342 nuclear staining (Jurkat [1]; 48h, conc 3 (µM)): 2 (score 2 relating to strong activity comprising more than 50% of the cells)
Hoechst 33342 nuclear staining (Jurkat [1]; 48h, conc 10 (µM)): 2 (score 2 relating to strong activity comprising more than 50% of the cells)
Hoechst 33342 nuclear staining (K562 [2]; K562, 24h, conc 0.3 (µM)): 0
Hoechst 33342 nuclear staining (K562 [2]; K562, 24h, conc 1 (µM)): 0
Hoechst 33342 nuclear staining (K562 [2]; K562, 24h, conc 3 (µM)): 0
Hoechst 33342 nuclear staining (K562 [2]; K562, 48h, conc 0.3 (µM)): 0
Hoechst 33342 nuclear staining (K562 [2]; K562, 48h, conc 1 (µM)): 2 (score 2 relating to strong activity comprising more than 50% of the cells)
Hoechst 33342 nuclear staining (K562 [2]; K562, 48h, conc 3 (µM)): 2 (score 2 relating to strong activity comprising more than 50% of the cells)
Hoechst 33342 nuclear staining (K562 [2]; K562, 48h, conc 10 (µM)): 2 (score 2 relating to strong activity comprising more than 50% of the cells)
Hoechst 33342 nuclear staining (HeLa [3]; 24h, conc 0.3 (µM)): 0
Hoechst 33342 nuclear staining (HeLa [3]; 24h, conc 1 (µM)): 0
Hoechst 33342 nuclear staining (HeLa [3]; 24h, conc 3 (µM)): 0
Hoechst 33342 nuclear staining (HeLa [3]; 24h, conc 10 (µM)): 0
Hoechst 33342 nuclear staining (HeLa [3]; 48h, conc 0.3 (µM)): 0
Hoechst 33342 nuclear staining (HeLa [3]; 48h, conc 1 (µM)): 0
Hoechst 33342 nuclear staining (HeLa [3]; 48h, conc 3 (µM)): 1 (1 relating to weak activity comprising less than 50% of the cells)
Hoechst 33342 nuclear staining (HeLa [3]; 48h, conc 10 (µM)): 2 (score 2 relating to strong activity comprising more than 50% of the cells)
IC50 (A20 [4]): 1 to 10 µM
G2M (increase of the cell population arrested in G2M phase) (Jurkat [7]): 0
subG1 (generation of a subG1 peak indicative for DNA fragmentation) (Jurkat [7]): 1
G2M (increase of the cell population arrested in G2M phase) (HeLa [8]): 0
subG1 (generation of a subG1 peak indicative for DNA fragmentation) (HeLa [8]): 1
percentage of positively stained cells (AnnexinV/7-AAD staining) (A20 [9]): 0 (Score 0 relates to less than 10%)
percentage of positively stained cells (AnnexinV/7-AAD staining) (Jurkat [10]): 0 (Score 0 relates to less than 10%)
percentage of positively stained cells (AnnexinV/7-AAD staining) (HeLa [11]): 1 (score 1 relates to more than 10% but less than 50%)
percentage of positively stained cells (AnnexinV/7-AAD staining) (Ramos): 0 (Score 0 relates to less than 10%)
